Test results published in patent publication US20130244296A1, “HALOGENATION ENZYMES” (priority 2011, published 2013).
Like-named read-outs stand apart in the source and are kept apart here.

Columns and labels:
Rdc2 halogenase = target: T1, Rdc2 halogenase (Metacordyceps chlamydosporia, UniProt B3FWT7, INS404VIQGSGSS/INS87YTDFIA/S88A); assay type: biochemical, P. chlamydosporia; settings: three independent experiments
T1 construct: 2 was concentrated and exchanged into Buffer A; His6 (N); made in house; host or cells: Escherichia coli BL21-CodonPlus (DE3)-RIL
T1 sequence (B3FWT7 other isoform, or with tags, fused parts or gaps INS87YTDFIA/S88A/INS404VIQGSGSS): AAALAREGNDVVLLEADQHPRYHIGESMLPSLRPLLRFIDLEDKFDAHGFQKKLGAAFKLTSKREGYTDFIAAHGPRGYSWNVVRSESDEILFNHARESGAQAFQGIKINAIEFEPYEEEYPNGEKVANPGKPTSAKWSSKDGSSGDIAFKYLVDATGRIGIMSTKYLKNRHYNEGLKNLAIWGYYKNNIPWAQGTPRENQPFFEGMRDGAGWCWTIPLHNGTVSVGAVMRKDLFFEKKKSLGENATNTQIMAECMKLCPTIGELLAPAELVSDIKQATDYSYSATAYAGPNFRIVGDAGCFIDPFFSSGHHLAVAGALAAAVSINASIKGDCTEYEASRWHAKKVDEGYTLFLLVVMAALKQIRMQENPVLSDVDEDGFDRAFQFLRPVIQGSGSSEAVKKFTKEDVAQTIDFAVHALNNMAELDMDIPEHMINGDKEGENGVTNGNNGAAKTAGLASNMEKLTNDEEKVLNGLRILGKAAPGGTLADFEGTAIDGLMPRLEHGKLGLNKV
Description: Kinetic analysis of two chlorination steps of dihydroresorcylide (compound 3) by an Rdc2 halogenase of the present disclosure was carried out. Dihydroresorcylide (compound 3) was chosen as the substrate to study the kinetics of the Rdc2 halogenase. To measure the ka, and Km for the C-11 chlorination, a series of 100-μL reaction systems were set up containing 100 μM FAD, 10 mM NADH, 10 mM NaCl, 16 μM Fre, and 16 μM Rdc2 halogenase in 100 mM phosphate buffer (pH 7.0) with varying amount of compound 3 (0.17 to 1.71 mM) in each tube. All the reaction components and Fre were mixed thoroughly and maintained at 28° C. for 2 min. Rdc2 was then added to initiate the reaction. After 30 minutes, the reactions were quenched with 200 μL of MeOH, briefly vortexed, and centrifuged at 15,000 rpm for 5 minutes. Product formation was quantified on the HPLC at 315 nm based on the area of the peaks and standard curve of compound 3a. Reactions were run in triplicate and the steady-state parameters kcat and Km were determined by nonlinear fitting of Michaelis-Menten equation.
For the second halogenations step, C-13 chlorination, the same method was used to determine kcat and Km except that 11-chlorodihydroresorcylide (compound 3a) was used as the substrate (0.03-0.18 mM).

[1] = tested on: heat shock protein 90 (Hsp90); settings: general statement, no test described; cited from earlier work
[2] = C-13 halogenation (chlorination), compound 3a as substrate

SMILES: CC1CCCC(=O)CCCc2c(Cl)c(O)cc(O)c2C(=O)O1 (stereo not drawn) [Compound 3a, 11-chlorodihydroresorcylide]
- Km (Rdc2 halogenase; [2]): 846 ± 26 µM
- kcat (Rdc2 halogenase; [2]): 0.0016 ± 6.7e-05 s⁻¹

SMILES: C[C@@H]1C[C@H]2O[C@@H]2/C=C\C=C\C(=O)Cc2c(Cl)c(O)cc(O)c2C(=O)O1 [Compound 1a, radicicol]
- Hsp90 inhibition [1]: potent

SMILES: C[C@H]1CCCCCC(=O)Cc2cc(O)cc(O)c2C(=O)O1 [Compound 3, dihydroresorcylide]
- Km (Rdc2 halogenase; C-11 halogenation (chlorination), compound 3 as substrate, 16 μM Fre, 16 μM Rdc2, pH 7.0, 28° C., 30 minutes): 281 ± 20 µM
- kcat (Rdc2 halogenase; C-11 halogenation (chlorination), compound 3 as substrate): 0.0137 ± 0.000667 s⁻¹

SMILES: C[C@@H]1C[C@H]2O[C@@H]2/C=C\C=C\C(=O)Cc2cc(O)cc(O)c2C(=O)O1 [Compound 1, monocillin I]
- Hsp90 inhibition [1]: potent
